Results: patent US9453226B2, “Protection of cells from Alu-RNA-induced degeneration and inhibitors for protecting cells” (UNIVERSITY OF KENTUCKY RESEARCH FOUNDATION, priority 2011, dated 2016)

Tested on: RPE
Assay: Alu RNA-induced RPE degeneration in wild-type mice, inhibitors given intravitreously
Format: in vivo
Details: WT mice; subretinal Alu RNA; inhibitor intravitreous
Method: Subretinal injection and imaging. Subretinal injections (1 μL) were performed using a Pico-Injector (PLI-100, Harvard Apparatus). Plasmids were transfected in vivo using 10% Neuroporter (Genlantis). Fundus imaging was performed on a TRC-50 IX camera (Topcon) linked to a digital imaging system (Sony). RPE flat mounts were immunolabeled using antibodies against zonula occludens-1 (Invitrogen).
Retinal photographs of dilated mouse eyes were taken with a TRC-50 IX camera (Topcon) linked to a digital imaging system (Sony).
Human eyes fixed in 2-4% paraformaldehyde were prepared as eyecups, cryoprotected in 30% sucrose, embedded in optimal cutting temperature compound (Tissue-Tek OCT; Sakura Finetek), and cryosectioned into 10 μm sections. Depigmentation was achieved using 0.25% potassium permanganate and 0.1% oxalic acid. Immunohistochemical staining was performed with the rabbit antibody against NLRP3 (1:100, Sigma Aldrich) or rabbit antibody against Caspase-1 (prediluted, AbCam). Isotype IgG was substituted for the primary antibody to assess the specificity of the staining. Bound antibody was detected with biotin-conjugated secondary antibodies, followed by incubation with ABC reagent and visualized by Vector Blue (Vector Laboratories). Levamisole (Vector Laboratories) was used to block endogenous alkaline phosphatase activity. Slides were washed in PBS, counterstained with neutral red (Fisher Scientific), rinsed with deionized water, air dried, and then mounted in Vectamount (Vector Laboratories). Fluorescent labeling of human tissue was performed with the rabbit antibody against PYCARD (1:50, Clone N-15, Santa Cruz Biotechnology) Immunolabeling was visualized by fluorescently conjugated anti-rabbit secondary antibody (Invitrogen). Tissue autofluorescence was quenched by incubating the sections in 0.3% Sudan black (Fisher Scientific). Sections were mounted in Vectashield with DAPI (Vector Laboratories). Mouse RPE/choroid flat mounts were fixed with 4% paraformaldehyde or 100% methanol, stained with rabbit antibodies against human zonula occludens-1 (1:100, Invitrogen) and visualized with Alexa594 (Invitrogen). All images were obtained using the Leica SP-5 or Zeiss Axio Observer Z1 microscopes.
Subretinal injections (1 μL) in mice were performed using a Pico-Injector (PLI-100, Harvard Apparatus). In vivo transfection of plasmids coding for two different Alu sequences (pAlu) or empty control vector (pNull) (Bennett et al., 2008; Kaneko et al., 2011; Shaikh et al., 1997) was achieved using 10% Neuroporter (Genlantis). AAV1-BEST1-Cre (Alexander and Hauswirth, 2008) or AAV1-BEST1-GFP were injected at 1.0×10^11 pfu/mL and in vitro transcribed Alu RNA was injected at 0.3 mg/mL.
siRNAs formulated in siRNA buffer (20 mM KCL, 0.2 mM MgCl2 in HEPES buffer at pH 7.5; Dharmacon) or phosphate buffered saline (PBS; Sigma-Aldrich); the TLR4 antagonist Ultra Pure Rhodobacter sphaeroides LPS (LPS-RS, InvivoGen), a peptide inhibitor of MyD88 homodimerization IMG-2005 (IMGENEX), control inhibitor (IMGENEX), recombinant IL-18 (Medical & Biological Laboratories), neutralizing rat antibodies against mouse IL-1β (IMGENEX), neutralizing rat antibodies against mouse IL-18 (Medical & Biological Laboratories), isotype control IgGs (R&D Systems or eBioscience as appropriate), Caspase-1 inhibitor Z-WEHD-FMK (R&D Systems), Caspase control inhibitor Z-FA-FMK (R&D Systems), DPI (Enzo Life Sciences), Mito-TEMPO (Enzo Life Sciences), MitoQ and dTPP (both adsorbed to cyclodextrin and provided by M.P. Murphy, MRC Mitochondrial Biology Unit), and gp91ds-tat and scrambled gp91 ds-tat (both Anaspec), were dissolved in phosphate buffered saline (PBS; Sigma-Aldrich) or dimethyl sulfoxide (DMSO; Sigma-Aldrich), and injected into the vitreous humor in a total volume of 1 μL with a 33-gauge Exmire microsyringe (Ito Corporation). […] As a control, Luc siRNA-chol (17+2 nt) was used with identical dosages.

Question: “DRQIKIWFQNRRMKWKKRDVLPGT [MyD88 inhibitory peptide]” was tested. Which “Alu RNA-induced RPE degeneration” value did it give?
Answer: The value was “prevented RPE degeneration”.
